Data from patent US6887873B2, “Triazine derivatives and their application as antitelomerase agents” (Aventis Pharma S.A., priority 2001, dated 2005).
Like-named read-outs stand apart in the source and are kept apart here.

Tested on: A549 cells
Assay: Cytotoxic activity on human tumour line A549, neutral red, 96 hours
Format: cell-based
Details: read-out: Cytotox. A549 IC50
Experimental: The cytotoxic biological activity on human tumour lines is determined according to the following experimental protocol:
The human cell lines A549 are obtained from ATCC (American Type Culture Collection, Rockville, USA). The A549 cells are cultured in a layer in a culture flask in RPMI 1640 medium containing L-glutamine at 2 mM, penicillin 200 U/ml, streptomycin 200 μg/ml and supplemented with 10% heat-inactivated foetal calf serum. The KB cells are cultured in a layer in a culture flask in Dulbelco's medium containing L-glutamine at 2 mM, penicillin 200 U/ml, streptomycin 200 μg/ml and supplemented with 10% heat-inactivated foetal calf serum.
The cells at the exponential growth phase are trypsinized, washed in 1×PBS and are inoculated in 96-well microplates (Costar) in an amount of 4×10^4 cells/ml for A549 and of 1.5×10^4 cells/ml (0.2 ml/well) and then incubated for 96 hours in the presence of variable concentrations of product to be studied (10, 1, 0.1 and 0.01 μM, each point in quadruplicate). 16 hours before the end of the incubation, 0.02% final of neutral red is added to each well. At the end of the incubation, the cells are washed with 1×PBS and lysed with 1% sodium lauryl sulphate. The cellular incorporation of the dye, which reflects cellular growth, is evaluated by spectro-photometry at a wavelength of 540 nm for each sample with the aid of a Dynatech MR5000 reading apparatus.
For each compound concentration tested, the results are expressed as percentage of inhibition of cellular growth and calculated from the untreated control and the culture medium free of cells (blank) according to the following formula: (compound value−blank value/cell control value−blank value)×100.
The concentration of compound inducing a 50% inhibition of growth (IC50) is determined with the aid of a semilogarithmic graphical representation of the inhibition values obtained as a function of each of the compound concentrations tested.
A compound is considered to be active as cytotoxic agent if the concentration inhibiting the growth of the tumour cells tested by 50% is in particular less than 10 μM.

| Structure (SMILES) | IC50 (Homo sapiens, A549, A549) | IC50 (A549) |
| --- | --- | --- |
| Cc1cc(N)c2cc(Nc3nc(Nc4ccc5nc(C)cc(N)c5c4)nc(N4CCN(C(=O)c5ccco5)CC4)n3)ccc2n1 [Example 68] | 11.5 µM |  |
| COc1ccc(CSc2nc(Nc3ccc4nc(C)cc(N)c4c3)nc(Nc3ccc4nc(C)cc(N)c4c3)n2)cc1 [Example 124] | 6.2 µM |  |
| Cc1cc(N(C)C)c2cc(Nc3nc(Nc4ccc5nc(C)cc(N(C)C)c5c4)nc(C4CCN(C)CC4)n3)ccc2n1 [Example 19, 2,4-bis(4-dimethylamino-2-methylquinolin-6-yl)amino-6-(1-methylpiperidin-4-yl)-[1,3,5]triazine] | 0.3 µM |  |
| Cc1cc(N)c2cc(Nc3nc(Nc4ccc5nc(C)cc(N)c5c4)nc(Sc4ncccn4)n3)ccc2n1 [Example 126] | 11.4 µM |  |
| Cc1cc(N(C)C)c2cc(Nc3nc(NCC[N+](C)(C)C)nc(Nc4ccc5nc(C)cc(N(C)C)c5c4)n3)ccc2n1 [Example 142] | 1.56 µM |  |
| CCN(CCNc1nc(Nc2ccc3nc(C)cc(N(C)C)c3c2)nc(Nc2ccc3nc(C)cc(N(C)C)c3c2)n1)c1cccc(C)c1 [Example 28] | 1.5 µM |  |
| Cc1cc(N)c2cc(Nc3nc(Nc4ccc5nc(C)cc(N)c5c4)nc(NC4CCN(Cc5ccccc5)C4)n3)ccc2n1 (stereo not drawn) [Example 41] | 9.9 µM |  |
| Cc1cc(N(C)C)c2cc(Nc3nc(NCCN4CCN(Cc5ccccc5)CC4)nc(Nc4ccc5nc(C)cc(N(C)C)c5c4)n3)ccc2n1 [Example 140] | 0.512 µM |  |
| Cc1cc(N(C)C)c2cc(Nc3nc(Nc4ccc5nc(C)cc(N(C)C)c5c4)nc(N4CCCN(C)CC4)n3)ccc2n1 [Example 135, 2,4-bis(4-dimethylamino-2-methylquinolin-6-yl)amino-6-(1-methylhomopiperazin-4-yl)-[1,3,5]triazine] | 0.07 µM |  |
| Cc1cc(N)c2cc(Nc3nc(Nc4ccc5nc(C)cc(N)c5c4)nc(N4CCCC4c4cccnc4)n3)ccc2n1 (stereo not drawn) [Example 86] | 18.9 µM |  |
| Cc1cc(N)c2cc(Nc3nc(Nc4ccc5nc(C)cc(N)c5c4)nc(N(Cc4ccccc4)C4CN5CCC4CC5)n3)ccc2n1 (stereo not drawn) [Example 92] | 7.8 µM |  |
| Cc1cc(N)c2cc(Nc3nc(Nc4ccc5nc(C)cc(N)c5c4)nc(Sc4ccccc4Cl)n3)ccc2n1 [Example 118] | 13.7 µM |  |
| Cc1cc(N)c2cc(Nc3nc(Nc4ccc5nc(C)cc(N)c5c4)nc(Sc4ccc5ccccc5n4)n3)ccc2n1 [Example 128, 2,4-bis(4-amino-2-methylquinolin-6-yl)amino-6-(quinolin-2-yl)thio-[1,3,5]triazine] | 2.86 µM |  |
| Cc1cc(N)c2cc(Nc3nc(Nc4ccc5nc(C)cc(N)c5c4)nc(Sc4ccccn4)n3)ccc2n1 [Example 120] | 17.8 µM |  |
| Cc1cc(N(C)C)c2cc(Nc3nc(Nc4ccc5nc(C)cc(N(C)C)c5c4)nc(N4CCN(C5CCCC5)CC4)n3)ccc2n1 [Example 143] | 0.52 µM |  |
| Cc1cc(N(C)C)c2cc(Nc3nc(Nc4ccc5nc(C)cc(N(C)C)c5c4)nc(N4CCN(CCCN(C)C)CC4)n3)ccc2n1 [Example 136, 2,4-bis(4-dimethylamino-2-methylquinolin-6-yl)amino-6-[1-(3-dimethylaminopropyl)piperazin-4-yl]-[1,3,5]triazine] | 0.026 µM |  |
| Cc1cc(N)c2cc(Nc3nc(Nc4ccc5nc(C)cc(N)c5c4)nc(N4CCN(C5CCCC5)CC4)n3)ccc2n1 [Example 43] | 10 µM |  |
| Cc1cc(N)c2cc(Nc3nc(Nc4ccc5nc(C)cc(N)c5c4)nc(NC4CN5CCC4CC5)n3)ccc2n1 (stereo not drawn) [Example 17, 2,4-bis(4-amino-2-methylquinolin-6-yl)amino-6-(quinuclidin-3-yl)amino-[1,3,5]triazine] | 2.73 µM |  |
| Cc1cc(N)c2cc(Nc3nc(Nc4ccc5nc(C)cc(N)c5c4)nc(Oc4ccccc4Cl)n3)ccc2n1 [Example 103] | 11.3 µM |  |
| Cc1cc(N(C)C)c2cc(Nc3nc(Nc4ccc5nc(C)cc(N(C)C)c5c4)nc(N4CCCN(CCCN5CCCC5)CC4)n3)ccc2n1 [Example 139] | 0.045 µM |  |
| CCN(CCN(C)C)c1nc(Nc2ccc3nc(C)cc(N(C)C)c3c2)nc(Nc2ccc3nc(C)cc(N(C)C)c3c2)n1 [Example 146] | 0.175 µM |  |

| Structure (SMILES) | IC50 (Homo sapiens, A549, A549) | IC50 (A549) |
| --- | --- | --- |
| Cc1cc(N(C)C)c2cc(Nc3nc(NCCCN(C)C)nc(Nc4ccc5nc(C)cc(N(C)C)c5c4)n3)ccc2n1 [Example 1, 2,4-bis(4-dimethylamino-2-methylquinolin-6-yl)amino-6-(3-dimethylaminopropyl)amino-[1,3,5]triazine] | 0.23 µM |  |
| Cc1cc(N)c2cc(Nc3nc(Nc4ccc(N5CCNCC5)cc4)nc(Nc4ccc5nc(C)cc(N)c5c4)n3)ccc2n1 [Example 15] | 1.85 µM |  |
| CC(=O)NCCNc1nc(Nc2ccc3nc(C)cc(N(C)C)c3c2)nc(Nc2ccc3nc(C)cc(N(C)C)c3c2)n1 [Example 150] | 2.47 µM |  |
| Cc1cc(N)c2cc(Nc3nc(NCc4ccc([N+](C)(C)C)cc4)nc(Nc4ccc5nc(C)cc(N)c5c4)n3)ccc2n1 [Example 60] | 5.7 µM |  |
| CC1=NCCN1c1nc(Nc2ccc3nc(C)cc(N(C)C)c3c2)nc(Nc2ccc3nc(C)cc(N(C)C)c3c2)n1 [Example 148] | 1.5 µM |  |
| Cc1cc(N(C)C)c2cc(Nc3nc(Nc4ccc5nc(C)cc(N(C)C)c5c4)nc(N4CCN(CCOCCO)CC4)n3)ccc2n1 [Example 141, 2,4-bis(4-dimethylamino-2-methylquinolin-6-yl)amino-6-{[1-2-(2-hydroxyethyl)oxyethyl]piperazin-4-yl}-[1,3,5]triazine] | 0.096 µM |  |
| Cc1cc(N(C)C)c2cc(Nc3nc(Nc4ccc5nc(C)cc(N(C)C)c5c4)nc(N4CCN(c5ccncc5)CC4)n3)ccc2n1 [Example 144, 2,4-bis(4-dimethylamino-2-methylquinolin-6-yl)amino-6-[1-(pyridin-4-yl)piperazin-4-yl]-[1,3,5]triazine] | 0.04 µM |  |
| Cc1cc(N)c2cc(Nc3nc(Nc4ccc5nc(C)cc(N)c5c4)nc(Nc4ccc5nc(C)cc(N)c5c4)n3)ccc2n1 [Example 2, 2,4,6-tris(4-amino-2-methylquinolin-6-yl)amino-[1,3,5]triazine] | 10 µM |  |
| Cc1cc(N(C)C)c2cc(Nc3nc(Nc4ccc5nc(C)cc(N(C)C)c5c4)nc(N4CCC[C@H]4CN4CCCC4)n3)ccc2n1 [Example 149, 2,4-bis(4-dimethylamino-2-methylquinolin-6-yl)amino-6-[2(S)-(pyrrolidin-1-yl)methylpyrrolidin-1-yl]-[1,3,5]triazine] | 0.096 µM |  |
| Cc1cc(N)c2cc(Nc3nc(Nc4ccc5nc(C)cc(N)c5c4)nc(N4CCN(C5CCCCCCC5)CC4)n3)ccc2n1 [Example 77] | 5.6 µM |  |
| Cc1cc(N)c2cc(Nc3nc(Nc4ccc5nc(C)cc(N)c5c4)nc(OCCN(C)Cc4ccccc4)n3)ccc2n1 [Example 105] | 11.6 µM |  |
| Cc1cc(N)c2cc(Nc3nc(Nc4ccc5nc(C)cc(N)c5c4)nc(NC4CCN(Cc5ccccc5)CC4)n3)ccc2n1 [Example 93] | 9.3 µM |  |
| CCCN(CCC)CCN1CCN(c2nc(Nc3ccc4nc(C)cc(N(C)C)c4c3)nc(Nc3ccc4nc(C)cc(N(C)C)c4c3)n2)CC1 [Example 137, 2,4-bis(4-dimethylamino-2-methylquinolin-6-yl)amino-6-[1-(2-dipropylaminoethyl)piperazin-4-yl]-[1,3,5]triazine] | 0.15 µM |  |
| COc1cccc(Oc2nc(Nc3ccc4nc(C)cc(N)c4c3)nc(Nc3ccc4nc(C)cc(N)c4c3)n2)c1 [Example 104] | 11.4 µM |  |
| Cc1cc(N(C)C)c2cc(Nc3nc(Nc4ccc5nc(C)cc(N(C)C)c5c4)nc(N(C)C4CCN(C)CC4)n3)ccc2n1 [Example 138, 2,4-bis(4-dimethylamino-2-methylquinolin-6-yl)amino-6-[N-(1-methylpiperidin-4-yl)-N-methylamino]-[1,3,5]triazine] | 0.061 µM |  |
| Cc1cc(N(C)C)c2cc(Nc3nc(Nc4ccncc4)nc(Nc4ccc5nc(C)cc(N(C)C)c5c4)n3)ccc2n1 [Example 18] | 2.86 µM |  |
| Cc1cc(C)nc(Sc2nc(Nc3ccc4nc(C)cc(N)c4c3)nc(Nc3ccc4nc(C)cc(N)c4c3)n2)n1 [Example 127] | 15.9 µM |  |
| Cc1cc(N)c2cc(Nc3nc(Nc4ccc5nc(C)cc(N(C)C)c5c4)nc(Nc4ccccc4Cl)n3)ccc2n1 [Example 3] | 6 µM |  |
| Cc1cc(N(C)C)c2cc(Nc3nc(NCc4ccncc4)nc(Nc4ccc5nc(C)cc(N(C)C)c5c4)n3)ccc2n1 [Example 145] |  | 0.42 µM |
| Cc1cc(N(C)C)c2cc(Nc3nc(NCc4ccncc4)nc(Nc4ccc5nc(C)cc(N(C)C)c5c4)n3)ccc2n1 [Example 27, 2,4-bis(4-dimethylamino-2-methylquinolin-6-yl)amino-6-(pyridin-4-yl)methylamino-[1,3,5]triazine] |  | 1 µM |
| Cc1cc(N(C)C)c2cc(Nc3nc(Nc4ccc5nc(C)cc(N(C)C)c5c4)nc(Oc4ccncc4)n3)ccc2n1 [Example 115, 2,4-bis(4-dimethylamino-2-methylquinolin-6-yl)amino-6-(pyridin-4-yl)oxy-[1,3,5]triazine] | 1.6 µM |  |
